Measurements taken from PMC9866541, “Flavonoid Derivatives as New Potent Inhibitors of Cysteine Proteases: An Important Step toward the Design of New Compounds for the Treatment of Leishmaniasis” (Microorganisms, 2023).

Key:
[1] = system: Promastigote forms of L. amazonensis; assay: Antipromastigote assay (MTT); type: cell-based, Leishmania amazonensis; details: for SI (selectivity index): GL50 in NIH/3T3 cells / IC50 in extracellular promastigotes; for IC50: Leishmania amazonensis, L. amazonensis promastigotes, 72 h, 26 °C, MTT, highest concentration tested 10 µg/mL, read-out: Promastigote IC50
Procedure: A standard strain of Leishmania (Leishmania amazonensis) (IFLA/BR/1967/PH8) was used for the evaluation of in vitro antileishmanial activity. The promastigote forms were grown in Schneider’s insect medium (Sigma-Aldrich®, SP/Brazil) supplemented with 20% foetal bovine serum (Sigma-Aldrich®, SP/Brazil), 10,000 U/mL penicillin, and 10 mg/mL streptomycin (Sigma-Aldrich®, SP/Brazil).
Promastigote forms of L. amazonensis in the log growth phase (10^e6 parasites/mL) were added to 96-well plates and incubated in sextuplicate with the test samples (0.25–10.0 µg/mL). The microplates were incubated at 26 °C for 72 h. Cell viability was assessed by adding 5 mg/mL of MTT ([3-(4,5-dimethylthiazol-2-yl)-2,5-diphenyltetrazolium bromide] (Sigma-Aldrich® SP/Brazil). Results were expressed as the half-maximal inhibitory concentration (IC50) calculated by a nonlinear dose–response regression curve using the statistical program GraphPad PRISM 5.0. Pentamidine (Sigma-Aldrich ® SP/Brazil; 0.25–10 µg/mL) was used as a positive control, and pure Schneider culture medium was used as a negative control.

[2] = molecular target: T1, rCPB2.8 (Leishmania mexicana, UniProt P36400); assay: Determination of IC50 on rCPB2.8 (Z-FR-AMC); type: biochemical
T1 construct: recombinant enzymes (r) lacking the C-terminal region
Procedure: Cysteine proteases rCPB2.8, rCPB3, and rH84Y were assayed in 100 mM sodium acetate buffer containing 5 mM EDTA, 100 mM NaCl, 0.01% Triton X-100, and 20% glycerol, at pH 5.5. The enzymes were pre-incubated in the presence of 5 mM DTT for 5 min at 37 °C in a 1 mL final volume with constant stirring. Enzyme activities were monitored using fluorogenic probe Z-FR-AMC (9.25 µM final concentration), and the fluorescence was monitored by spectrofluorometry using fluorometer F2700 (Hitachi, Tokyo, Japan) set to λEx = 360 nm and λEm = 480 nm. The IC50 evaluation was performed using a progressive increase in the concentration of the compounds; the IC50 values were calculated using nonlinear regression, and the data were analysed by Grafit 5.0.13 software using Equation (1). (1) y=100%/1+(x/IC50)^S.

[3] = system: NIH/3T3 fibroblasts; assay: Cytotoxicity on mammalian cells (sulphorhodamine B); type: cell-based; details: for NIH/3T3 Cells GL50: 48 h, concentration that inhibited cell growth by 50%
Procedure: The cytotoxic effect of the test samples was evaluated on NIH/3T3 fibroblasts, obtained from the Rio de Janeiro Cell Bank (Brazil). Cells were seeded in 96-well plates ([…]). After 24 h of fixation, cells were incubated for 48 h with test samples at 0.25–250 µg/mL, in triplicate. […] Doxorubicin (0.025–25 µg/mL was used as a positive control. Cells were fixed by adding 20% trichloroacetic acid and were subsequently stained with sulphorhodamine B (0.1%) diluted in acetic acid after 48 h of exposure. Absorbance values were read on the PT-READER microplate instrument (Thermoplate®), and growth percentages were calculated according to procedures in the literature. Cytotoxicity activity was expressed as the concentration of drug that inhibited cell growth by 50% (GL50), and growth was determined by nonlinear regression using Origin 6.0 software (OriginLab). The statistical significance was analysed using an unpaired Student’s t-test or a one-way analysis of variance. A p-value < 0.05 was considered statistically relevant. In addition, the SI was calculated using the ratio between cytotoxicity in NHI-3T3 cells (GL50) and activity in the parasite forms (IC50).

[4] = molecular target: T1, rCPB2.8; assay: Enzyme kinetics and mechanism of inhibition of rCPB2.8; type: biochemical; details: for α: factor of formation of the ESI complex; for β: factor of formation of the IEI complex; for γ: factor of formation of the IESI complex; for mechanism: key: NCPC: non-competitive inhibition with positive cooperativity; SLNC: simple linear non-competitive inhibition
Procedure: (§1) Studies of cysteine proteases rCPB2.8, rCPB3, and rH84Y inhibition kinetics were performed in different concentrations of Z-FR-AMC in the presence and absence of compounds using 100 mM sodium acetate buffer containing 5 mM EDTA, 100 mM NaCl, 0.01% Triton X-100, and 20% glycerol, at pH 5.5. Aliquots of the enzymes were pre-incubated with 5 mM DTT for 5 min at 37 °C. For every kinetic measurement, the compounds were pre-incubated with each enzyme for 10 min before adding the substrate. All kinetic assays were performed in duplicate. Inhibition constants were determined using different equations, depending on the inhibition mechanism. The assumed KM values of rCPB2.8, rCPB3, and rH84Y for Z-FR-AMC were 3.23 µM, 2.99 µM, and 2.80 µM, respectively. The data of the activity rate and substrate concentration generated rectangular hyperbolic profiles that were linearised using the Lineweaver–Burk double-reciprocal plot. The replot profiles of the slope vs. inhibitor and intercept vs. inhibitor provided Ki and αKi parameters, respectively. If the replots present a parabolic profile, the system involves the participation of a second molecule of the compound, which can bind the enzyme complexed to the first compound (EI), forming IEI, and bind to the ESI complex, forming IESI. Linearisation is required, generating the 1/Kslope vs. inhibitor and 1/Kintercept vs. inhibitor replots, according to Equations (2) and (3). (2) 1/Kslope=1/Ki+[I]/βKi2, (3) 1/Kintercept=1/αKi+[I]/αγKi2, where Ki is the inhibitory constant, [I] is the concentration of inhibitor, α is the factor of formation of the ESI complex (enzyme–substrate–inhibitor complex), β is the factor of formation of the IEI complex (inhibitor–enzyme–inhibitor complex), and γ is the factor of formation of the IESI complex (inhibitor–enzyme–substrate–inhibitor complex) according to the general mechanism (Figure 8). Furthermore, β and γ measure the cooperativity between the binding of the first and second inhibitor molecules to form IEI and IESI, respectively.

[5] = molecular target: rCPB3 (Leishmania mexicana, UniProt P36400, D186N/D189S/N185D, form not given); assay: Enzyme kinetics and mechanism of inhibition of rCPB3; type: biochemical; details: for α: factor of formation of the ESI complex; for mechanism: key: NCPC: non-competitive inhibition with positive cooperativity; SLNC: simple linear non-competitive inhibition
Procedure: as §1

[6] = molecular target: rH84Y (Leishmania mexicana, UniProt P36400, D186N/D189S/H209Y/N185D, form not given); assay: Enzyme kinetics and mechanism of inhibition of rH84Y; type: biochemical; details: for α: factor of formation of the ESI complex; for mechanism: key: NCPC: non-competitive inhibition with positive cooperativity; SLNC: simple linear non-competitive inhibition
Procedure: as §1

[7] = factor of formation of the IEI complex
[8] = factor of formation of the IESI complex

rH84Y, sequence (P36400 126-343 D186N/D189S/H209Y/N185D): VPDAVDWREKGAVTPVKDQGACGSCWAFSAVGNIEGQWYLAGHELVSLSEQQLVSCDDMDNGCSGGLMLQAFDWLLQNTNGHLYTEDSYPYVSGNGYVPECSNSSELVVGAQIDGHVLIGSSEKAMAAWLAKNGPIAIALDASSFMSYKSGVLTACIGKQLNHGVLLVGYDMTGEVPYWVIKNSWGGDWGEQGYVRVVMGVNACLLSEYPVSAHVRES
T1 sequence (P36400 126-343): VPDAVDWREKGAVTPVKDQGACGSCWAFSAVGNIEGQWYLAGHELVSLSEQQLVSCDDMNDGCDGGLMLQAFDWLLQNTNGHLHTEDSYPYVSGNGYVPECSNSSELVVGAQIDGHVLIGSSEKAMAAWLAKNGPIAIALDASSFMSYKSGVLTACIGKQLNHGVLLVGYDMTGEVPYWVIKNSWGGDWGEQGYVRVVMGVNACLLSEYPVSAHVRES
rCPB3, sequence (P36400 126-343 D186N/D189S/N185D): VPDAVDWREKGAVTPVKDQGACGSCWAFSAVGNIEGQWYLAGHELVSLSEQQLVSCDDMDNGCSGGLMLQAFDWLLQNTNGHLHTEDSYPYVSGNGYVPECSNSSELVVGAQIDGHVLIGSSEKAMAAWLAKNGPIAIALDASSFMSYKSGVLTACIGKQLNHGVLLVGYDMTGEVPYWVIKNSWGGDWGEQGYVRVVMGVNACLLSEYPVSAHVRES

SMILES: COc1ccc(/C=C/C(=O)c2ccccc2O)cc1 [Compound 2a, (E)-1-(2-hydroxyphenyl)-3-(4-methoxyphenyl)prop-2-en-1-one]
- SI (selectivity index) [1]: 1324
- IC50 [1]: 710 nM
- IC50 [2]: 2350 ± 190 nM
- NIH/3T3 Cells GL50 [3]: 940.14 µM

SMILES: CN(C)c1ccc(-c2oc3ccc(Cl)cc3c(=O)c2O)cc1 [f13c, 6-chloro-2-(4-(dimethylamino)phenyl)-3-hydroxy-4H-chromen-4-one]
- IC50 [1]: > 10 µg/mL
- IC50 [2]: 14200 ± 650 nM
- NIH/3T3 Cells GL50 [3]: >791.76 µM

SMILES: CN(C)c1ccc(-c2oc3ccccc3c(=O)c2O)cc1 [f12c, 2-(4-(dimethylamino)phenyl)-3-hydroxy-4H-chromen-4-one]
- SI (selectivity index) [1]: 1039.90
- IC50 [1]: 730 nM
- IC50 [2]: 10300 ± 390 nM
- NIH/3T3 Cells GL50 [3]: 759.13 µM

SMILES: C[C@@H]1[C@H](O)[C@@H](C)/C=C/C=C/C=C/C=C/C=C/C=C/C=C/[C@H](O[C@@H]2O[C@H](C)[C@@H](O)[C@H](N)[C@@H]2O)C[C@@H]2O[C@](O)(C[C@@H](O)C[C@@H](O)[C@H](O)CC[C@@H](O)C[C@@H](O)CC(=O)O[C@H]1C)C[C@H](O)[C@H]2C(=O)O [Amphotericin B, reference compound]
- IC50 [1]: 100 nM

SMILES: O=C(/C=C/c1ccc2c(c1)OCO2)c1cc(F)ccc1O [Compound 4b, (E)-3-(benzo[d][1, 3]dioxol-5-yl)-1-(5-fluoro-2-hydroxyphenyl)prop-2-en-1-one]
- IC50 [1]: 1950 nM
- IC50 [2]: 6610 ± 410 nM
- NIH/3T3 Cells GL50 [3]: >873.36 µM

SMILES: N=C(N)c1ccc(OCCCCCOc2ccc(C(=N)N)cc2)cc1 [Pentamidine, reference compound]
- IC50 [1]: 800 nM

SMILES: COc1cccc2c1C(=O)c1c(O)c3c(c(O)c1C2=O)C[C@@](O)(C(=O)CO)C[C@@H]3O[C@H]1C[C@H](N)[C@H](O)[C@H](C)O1 [Doxorubicin, reference compound]
- NIH/3T3 Cells GL50 [3]: 0.05 µM

SMILES: COc1ccc(/C=C/C(=O)c2cc(Cl)ccc2O)cc1 [Compound 3a, (E)-1-(5-chloro-2-hydroxyphenyl)-3-(4-methoxyphenyl)prop-2-en-1-one]
- SI (selectivity index) [1]: >1443.10
- IC50 [1]: 600 nM
- IC50 [2]: 7110 ± 320 nM
- NIH/3T3 Cells GL50 [3]: >865.86 µM
- Cytotoxicity against mammal cells (in words) ([3]; NIH/3T3 cells): noncytotoxic

SMILES: COc1ccc(/C=C/C(=O)c2cc(F)ccc2O)cc1 [Compound 4a, (E)-1-(5-fluoro-2-hydroxyphenyl)-3-(4-methoxyphenyl)prop-2-en-1-one]
- IC50 [1]: > 10 µg/mL
- IC50 [2]: 3350 ± 170 nM
- NIH/3T3 Cells GL50 [3]: 901.09 µM

SMILES: O=C(/C=C/c1ccc2c(c1)OCO2)c1ccccc1O [Compound 2b, (E)-3-(benzo[d][1, 3]dioxol-5-yl)-1-(2-hydroxyphenyl)prop-2-en-1-one]
- IC50 [1]: > 10 µg/mL
- IC50 [2]: 20600 ± 1060 nM
- Times less efficient in inhibiting rCPB2.8 than compound 2a ([2]; ratio of IC50 values): 8.78 times
- NIH/3T3 Cells GL50 [3]: 910.58 µM

SMILES: COc1ccc(-c2oc3ccccc3c(=O)c2O)cc1 [f12a, 3-hydroxy-2-(4-methoxyphenyl)-4H-chromen-4-one]
- Formation of IESI favoured by binding of the first molecule [4]: 50 fold
- Mechanism [4]: NCPC
- αKi [4]: 10.7 ± 1.1 µM
- Ki ([4]; Ki): 12400 ± 1400 nM
- α [4]: 1
- β [4]: 0.29
- γ [4]: 0.02
- Ki ([4]; βKi): 3650 ± 390 nM
- Ki ([4]; γKi): 250 ± 30 nM
- IC50 [1]: > 10 µg/mL
- Mechanism [5]: SLNC
- αKi [5]: 7.50 ± 0.66 µM
- α [5]: 1
- IC50 [2]: 4720 ± 380 nM
- Mechanism [6]: SLNC
- αKi [6]: 11.2 ± 0.5 µM
- α [6]: 1
- NIH/3T3 Cells GL50 [3]: >931.93 µM

SMILES: COc1ccc(-c2oc3ccc(Cl)cc3c(=O)c2O)cc1 [f13a, 6-chloro-3-hydroxy-2-(4-methoxyphenyl)-4H-chromen-4-one]
- SI (selectivity index) [1]: >764.70
- IC50 [1]: 1080 nM
- IC50 [2]: 1880 ± 70 nM
- NIH/3T3 Cells GL50 [3]: >825.87 µM

SMILES: O=C(/C=C/c1ccc2c(c1)OCO2)c1ccc(Cl)cc1 [Compound 1b, (E)-3-(benzo[d][1, 3]dioxol-5-yl)-1-(4-chlorophenyl)prop-2-en-1-one]
- IC50 [1]: > 10 µg/mL
- IC50 [2]: 7420 ± 250 nM
- NIH/3T3 Cells GL50 [3]: 811.27 µM

SMILES: CN(C)c1ccc(/C=C/C(=O)c2cc(Cl)ccc2O)cc1 [Compound 3c, (E)-1-(5-chloro-2-hydroxyphenyl)-3-(4-(dimethylamino)phenyl)prop-2-en-1-one]
- Formation of IEI favoured by binding of the first molecule [4]: 182 fold
- Formation of IESI favoured by binding of the first molecule [4]: 87 fold
- Mechanism [4]: NCPC
- αKi [4]: 147 ± 28 µM
- Ki ([4]; Ki): 100000 ± 18000 nM
- α [4]: 1.47
- β [4]: 0.0055
- γ [4]: 0.0115
- Ki ([4]; βKi): 550 ± 100 nM
- Ki ([4]; γKi): 1150 ± 210 nM
- IC50 [1]: > 10 µg/mL
- Formation of IEI favoured by binding of the first molecule [5]: sevenfold
- Formation of IESI favoured by binding of the first molecule [5]: 20 fold
- Mechanism [5]: NCPC
- αKi [5]: 141 ± 27 µM
- α [5]: 9.15
- β [5, 7]: 0.14
- γ [5, 8]: 0.05
- IC50 [2]: 3970 ± 80 nM
- Formation of IEI favoured by binding of the first molecule [6]: 20 fold
- Formation of IESI favoured by binding of the first molecule [6]: 28 fold
- Mechanism [6]: NCPC
- αKi [6]: 127 ± 20 µM
- α [6]: 4.31
- β [6, 7]: 0.049
- γ [6, 8]: 0.036
- NIH/3T3 Cells GL50 [3]: >828.44 µM

SMILES: O=C(/C=C/c1ccc2c(c1)OCO2)c1cc(Cl)ccc1O [Compound 3b, (E)-3-(benzo[d][1, 3]dioxol-5-yl)-1-(5-chloro-2-hydroxyphenyl)prop-2-en-1-one]
- SI (selectivity index) [1]: 61.59
- IC50 [1]: 960 nM
- IC50 [2]: 18400 ± 1220 nM
- NIH/3T3 Cells GL50 [3]: 59.13 µM
